Laboratory results published in patent US20240262832A1, “SMALL MOLECULE MODULATORS OF GLUCOCEREBROSIDASE ACTIVITY AND USES THEREOF” (Vanqua Bio, Inc., priority 2021, published 2024).

Each molecule was assayed against T1, GCase (Homo sapiens, UniProt P04062) (assay: activation of GCase in a live cell PFB assay in HELA cells).
T1 construct: endogenous in cells; host or cells: HeLa cells
T1 sequence (P04062 40-536): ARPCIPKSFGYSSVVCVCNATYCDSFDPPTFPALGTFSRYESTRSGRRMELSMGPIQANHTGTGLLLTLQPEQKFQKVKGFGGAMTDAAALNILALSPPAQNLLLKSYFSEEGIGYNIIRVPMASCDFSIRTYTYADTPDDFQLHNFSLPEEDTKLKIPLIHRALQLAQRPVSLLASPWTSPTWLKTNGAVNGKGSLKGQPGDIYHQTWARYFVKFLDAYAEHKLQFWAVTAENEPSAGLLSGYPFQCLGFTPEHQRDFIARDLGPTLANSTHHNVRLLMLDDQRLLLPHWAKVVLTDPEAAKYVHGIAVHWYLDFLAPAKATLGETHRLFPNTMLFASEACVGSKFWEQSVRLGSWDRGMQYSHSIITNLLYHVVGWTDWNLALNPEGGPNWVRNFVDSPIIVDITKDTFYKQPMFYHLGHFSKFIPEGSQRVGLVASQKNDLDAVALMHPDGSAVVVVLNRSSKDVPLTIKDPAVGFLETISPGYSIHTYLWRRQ
Format: cell-based

SMILES | EC50 [µM]
Cn1c(-c2ccc(F)cn2)nc2ncc(N3C[C@@H]4[C@@H](COc5cc(F)cc(F)c5)[C@@H]4C3)nc21 [Compound 286, 6-((1R,5S,6r)-6-((3,5-Difluorophenoxy)methyl)-3-azabicyclo[3.1.0]hexan-3-yl)-2-(5-fluoropyridin-2-yl)-1-methyl-1H-imidazo[4,5-b]pyrazine] | > 100
C[C@H]1CC[C@H](COc2cccnc2C(F)(F)F)CN1c1cnc2cnn(CC(F)F)c2n1 [Compound 78, 3-{[(3S,6S)-1-[1-(2,2-Difluoroethyl)pyrazolo[3,4-b]pyrazin-6-yl]-6-methylpiperidin-3-yl]methoxy}-2-(trifluoromethyl)pyridine] | > 100
Cc1ccccc1OCC1CCCN(C(=O)[C@@H]2CCc3nccc(=O)n32)C1 (stereo partly drawn) [Compound 280, (6S)-6-(3-((o-Tolyloxy)methyl)piperidine-1-carbonyl)-7,8-dihydropyrrolo[1,2-a]pyrimidin-4(6H)-one] | > 100
CN1CCC(COc2cccc(-c3cnc4ccccc4n3)c2)CC1 [Compound 428] | 10 to 50
COc1ccc(OCC2CCN(Cc3noc(C4CCCO4)n3)CC2)cc1 (centres unmarked) [Compound 471] | 50 to 100
COc1cnc2c(n1)c(C(=O)N1CCCC(COc3ccccc3C)C1)c(-c1ccccc1)n2C (centres unmarked) [Compound 264, (2-Methoxy-5-methyl-6-phenyl-5H-pyrrolo[2,3-b]pyrazin-7-yl)(3-((o-tolyloxy)methyl)piperidin-1-yl)methanone] | 10 to 50
COc1ccc(OCC2CCN(Cc3ncc[nH]3)CC2)cc1 [Compound 450] | 10 to 50
O=C(c1nnc(C2(c3ccccc3)CCOC2)o1)N1CCCC(COc2ccccc2)C1 (centres unmarked) [Compound 76, 3-(phenoxymethyl)-1-[5-(3-phenyloxolan-3-yl)-1,3,4-oxadiazole-2-carbonyl]piperidine] | 10 to 50
O=C(c1nnc(C2(c3ccccc3)CCCC2)o1)N1CCCC(COc2ccccc2)C1 (centres unmarked) [Compound 3, (3-(phenoxymethyl)piperidin-1-yl)(5-(1-phenylcyclopentyl)-1,3,4-oxadiazol-2-yl)methanone] | 10 to 50
Cn1c(-c2ccccc2)cc2ncc(N3CCCC(COc4cccnc4C(F)(F)F)C3)nc21 (centres unmarked) [Compound 33, 5-Methyl-6-phenyl-3-(3-(((2-(trifluoromethyl)pyridin-3-yl)oxy)methyl)piperidin-1-yl)-5H-pyrrolo[2,3-b]pyrazine] | 10 to 50
O=C(c1ccc2cc[nH]c2c1)N1CCC(Oc2cc(C(F)(F)F)ccn2)CC1 [Compound 322, (1H-Indol-6-yl)(4-((4-(trifluoromethyl)pyridin-2-yl)oxy)piperidin-1-yl)methanone] | 50 to 100
FC(F)(F)Cn1ncc2ncc(N3C[C@@H]4[C@@H](COc5cccnc5C(F)(F)F)[C@@H]4C3)nc21 [Compound 101, (1R,5S,6S)-3-[1-(2,2,2-Trifluoroethyl)-1H-pyrazolo[3,4-b]pyrazin-6-yl]-6-({[2-(trifluoromethyl)pyridin-3-yl]oxy}methyl)-3-azabicyclo[3.1.0]hexane] | 10 to 50
COc1ccc(OCC2CCN(C(=O)COCC3CCCO3)CC2)cc1 (centres unmarked) [Compound 422] | 10 to 50
O=C(Cc1ccc(OC(F)F)c(F)c1)N1CCCC(COc2ccccc2)C1 (centres unmarked) [Compound 198] | 10 to 50
FC(F)Cn1ncc2ncc(N3CCC(COc4ccc(C(F)(F)F)cn4)CC3)nc21 [Compound 317, 1-(2,2-Difluoroethyl)-6-(4-(((5-(trifluoromethyl)pyridin-2-yl)oxy)methyl)piperidin-1-yl)-1H-pyrazolo[3,4-b]pyrazine] | 10 to 50
COc1ccc(OCC2CCN(c3nc(N)nc(C)c3C)CC2)cc1 [Compound 458] | > 100
Cc1ccccc1OCC1CCCN(C(=O)c2cnc3c(cc(-c4ccccc4)n3C)n2)C1 (centres unmarked) [Compound 52, (5-methyl-6-phenyl-5H-pyrrolo[2,3-b]pyrazin-2-yl)(3-((o-tolyloxy)methyl)piperidin-1-yl)methanone] | 10 to 50
COc1ccc(OCC2CCN(Cc3nnc(C4CC(N)C4)n3C)CC2)cc1 (centres unmarked) [Compound 473] | > 100
COc1ccc(OCC2CCN(c3cncc(N)n3)CC2)cc1 [Compound 431] | 50 to 100
Cc1cnc2c(n1)c(C(=O)N1CCCC(COc3ccccc3C)C1)c(-c1ccccc1)n2C (centres unmarked) [Compound 263, (2,5-dimethyl-6-phenyl-5H-pyrrolo[2,3-b]pyrazin-7-yl)(3-((o-tolyloxy)methyl)piperidin-1-yl)methanone] | 10 to 50
CC(CC1CCCN(c2cnc3cnn(CC(F)F)c3n2)C1)c1cccnc1C(F)(F)F (centres unmarked) [Compound 108, 1-(2,2-Difluoroethyl)-6-(3-(2-(2-(trifluoromethyl)pyridin-3-yl)propyl)piperidin-1-yl)-1H-pyrazolo[3,4-b]pyrazine] | 50 to 100
O=C(Cc1csc(-c2ccccc2)n1)N1CCC(Oc2cccnc2C(F)(F)F)CC1 [Compound 400, 2-(2-Phenyl-1,3-thiazol-4-yl)-1-(4-{[2-(trifluoromethyl)pyridin-3-yl]oxy}piperidin-1-yl)ethan-1-one] | 10 to 50
O=C(c1cnc(-c2nncs2)cn1)N1C[C@@H]2[C@@H](COc3cccc(C(F)(F)F)n3)[C@@H]2C1 [Compound 247, (1R,5S,6S)-3-[5-(1,3,4-Thiadiazol-2-yl)pyrazine-2-carbonyl]-6-({[6-(trifluoromethyl)pyridin-2-yl]oxy}methyl)-3-azabicyclo[3.1.0]hexane] | > 100

Results, then the molecule that gave them:

EC50 [µM] | SMILES
10 to 50 | O=C(Cc1csc(-c2ccccc2)n1)N1CCC(COCc2ccccc2)CC1 [Compound 335, 1-{4-[(Benzyloxy)methyl]piperidin-1-yl}-2-(2-phenyl-1,3-thiazol-4-yl)ethan-1-one]
< 10 | N#Cc1cccnc1OC1CCN(C(=O)C2(c3ccc(Cl)cc3)CCCC2)CC1 [Compound 370]
10 to 50 | FC(F)Cn1ncc2ncc(N3C[C@@H]4[C@@H](COc5ncccc5C(F)(F)F)[C@@H]4C3)nc21 [Compound 89, (1R,5S,6S)-3-[1-(2,2-difluoroethyl)-1H-pyrazolo[3,4-b]pyrazin-6-yl]-6-({[3-(trifluoromethyl)pyridin-2-yl]oxy}methyl)-3-azabicyclo[3.1.0]hexane]
10 to 50 | CC(C)(c1ccccc1)c1nnc(C(=O)N2CCCC(COc3ccccc3)C2)o1 (centres unmarked) [Compound 24, (3-(Phenoxymethyl)piperidin-1-yl)(5-(2-phenylpropan-2-yl)-1,3,4-oxadiazol-2-yl)methanone]
10 to 50 | C[C@@H]1CCN(c2cnc3cnn(CC(F)F)c3n2)C[C@H]1COc1cccnc1C(F)(F)F [Compound 48d, 1-(2,2-difluoroethyl)-6-((3S,4R)-4-methyl-3-(((2-(trifluoromethyl)pyridin-3-yl)oxy)methyl)piperidin-1-yl)-1H-pyrazolo[3,4-b]pyrazine]
< 10 | CC1CC(COc2cccnc2C(F)(F)F)CN(c2cncc(-c3nncs3)n2)C1 (single isomer, unassigned) [Compound 262b]
10 to 50 | O=C(c1ccc(N2CCCCCC2)cc1)N1CCCC(COc2ccccc2)C1 (centres unmarked) [Compound 156]
10 to 50 | O=C(c1ccc2cc[nH]c2c1)N1CCC(Oc2ncccc2C(F)(F)F)CC1 [Compound 321, (1H-Indol-6-yl)(4-((3-(trifluoromethyl)pyridin-2-yl)oxy)piperidin-1-yl)methanone]
10 to 50 | CCCC(C(=O)N1CCCC(COc2ccccc2)C1)n1nccc1C1CC1 (centres unmarked) [Compound 9]
10 to 50 | Cn1c(-c2ccccc2)cc2nc(C(=O)N3CCCC(COc4cccnc4C(F)(F)F)C3)cnc21 (centres unmarked) [Compound 68, (5-methyl-6-phenyl-5H-pyrrolo[2,3-b]pyrazin-2-yl)(3-(((2-(trifluoromethyl)pyridin-3-yl)oxy)methyl)piperidin-1-yl)methanone]
10 to 50 | O=C(c1ccc2cc[nH]c2c1)N1C[C@@H]2[C@@H](COc3cccnc3C(F)(F)F)[C@@H]2C1 [Compound 109, 6-[(1R,5S,6R)-6-({[2-(Trifluoromethyl)pyridin-3-yl]oxy}methyl)-3-azabicyclo[3.1.0]hexane-3-carbonyl]-1H-indole]
10 to 50 | O=C(c1cnn(-c2ccccc2F)n1)N1CCCC(COc2ccccc2)C1 (centres unmarked) [Compound 22, (2-(2-Fluorophenyl)-2H-1,2,3-triazol-4-yl)(3-(phenoxymethyl)piperidin-1-yl)methanone]
10 to 50 | O=C(c1cc2cccc(Cl)c2s1)N1CCCC(COc2ccccc2)C1 (centres unmarked) [Compound 218]
10 to 50 | Cc1ccccc1CCC1CCCN(C(=O)c2cnn(-c3ccccc3)n2)C1 (centres unmarked) [Compound 15, (3-(2-methylphenethyl)piperidin-1-yl)(2-phenyl-2H-1,2,3-triazol-4-yl)methanone]
< 10 | C[C@@H](Oc1cccnc1C(F)(F)F)[C@H]1CCCN(c2cncc(-c3nncs3)n2)C1 [Compound 45b, 2-(6-((S)-3-((R)-1-((2-(trifluoromethyl)pyridin-3-yl)oxy)ethyl)piperidin-1-yl)pyrazin-2-yl)-1,3,4-thiadiazole]
< 10 | CC(C)c1cc(C(=O)N2CC(COc3cccnc3C(F)(F)F)CCC2C)[nH]n1 (centres unmarked) [Compound 231, (3-isopropyl-1H-pyrazol-5-yl)(2-methyl-5-(((2-(trifluoromethyl)pyridin-3-yl)oxy)methyl)piperidin-1-yl)methanone]
< 10 | FC(F)Cn1ncc2ncc(N3CCC(COc4ccnc(C(F)(F)F)c4)CC3)nc21 [Compound 315, 1-(2,2-Difluoroethyl)-6-(4-(((2-(trifluoromethyl)pyridin-4-yl)oxy)methyl)piperidin-1-yl)-1H-pyrazolo[3,4-b]pyrazine]
< 10 | COc1ccc(OCC2CCN(Cc3cscn3)CC2)cc1 [Compound 477]
